Laboratory results reported in US20080200403A1, “9A-Carbamoyl and Thiocarbamoyl Azalides with Anti-Inflammatory Activity” (GLAXOSMITHKLINE, priority 2005, published 2008).
Like-named read-outs stand apart in the source and are kept apart here.

Key:
Type in all cases: cell-based
IL-1α = assay: Inhibition of IL-1 production by stimulated human peripheral blood leukocytes in vitro; conditions: PBL; for inhibition at 10 µM / inhibition at 50 µM: Homo sapiens, Leukocyte, read-out: Percentage of inhibition of IL-1α production
IL-6 = assay: Inhibition of IL-6 production by stimulated human peripheral blood leukocytes in vitro; conditions: PBL; for inhibition at 10 µM / inhibition at 50 µM: Homo sapiens, Leukocyte, read-out: Percentage of inhibition of IL-6 production
Procedure: (§1) Test substances used in in vitro experiments were dissolved in dimethyl sulfoxide (DMSO) (Kemika, Croatia) at concentrations of 50 mM and 10 mM, and were further diluted to final concentrations of 50 μM and 10 μM in 1 mL Dulbecco's modified Eagle medium (DMEM) supplemented with 1% heat inactivated fetal bovine serum (FBS), 1% L-glutamine, 50 U/ml penicillin, 50 μg/ml streptomycin and 2.5 μg/mL Fungizone (amphotericin B). Media and all media supplements were purchased from Gibco, Australia, except the FBS was purchased from Sigma, USA.
(§2) Peripheral blood leukocytes (PBL) were obtained from venous blood of healthy volunteers by sedimentation on 2% dextran T-500 (Amersham Biosciences, USA) and subsequent centrifugations of leukocyte rich plasma.
(§3) Peripheral blood leukocytes (PBL), isolated as described above, were seeded in a 48-well plate at a concentration of 3 to 5×10^6 cell per well in culture medium consisting of RPMI 1640 medium (Institute of Immunology, Croatia) supplemented with 10% heat-inactivated fetal calf serum (FCS, Biowhittaker, USA), 100 U/ml penicillin (Gibco, Australia), 100 μg/ml streptomycin (Gibco, Australia) and 2 mM L-glutamine (Gibco, Australia), and preincubated with the test compounds for 2 h at 37° C., in an atmosphere of 5% CO2, and 90% humidity. Then, stimuli (Sigma, USA) were added to a final concentration of 2 μg/mL lipopolysaccharide (LPS), 1 μg/mL phorbol 12-myristate 13-acetate (PMA) or 120 μg/mL zymosan. Samples were incubated overnight under conditions described above. At the end of incubation, the supernatants were transferred to eppendorf tubes and centrifuged for 10 min at 1500×g. Concentrations of human TNF-α, IL-1β, IL-6 and IL-8 were determined in cell supernatants by sandwich ELISA, using capture and detection antibodies (R&D Systems, Minneapolis, Minn.) according to the manufacturer's recommendations.
(§4) Inhibition (as percentage) was calculated using the following formula: % inhibition=(1−concentration of cytokines in sample/concentration of cytokines in positive control)×100. The positive control refers to stimulated samples, not treated with substances.

[1] = test system: human peripheral blood mononuclear cells (PBMC); assay: Human T-cell proliferation in vitro (3H-thymidine incorporation); conditions: Homo sapiens, PBMC, read-out: Percentage of inhibition of proliferation of stimulated PBMC; for inhibition at 10 µM: compound 10 μM; for inhibition at 50 µM: compound 50 μM
Procedure: Influence of substances at two different concentrations (50 μM and 10 μM) on cell proliferation of human peripheral blood mononuclear cells (PBMC) was assessed.
Heparinized peripheral blood was obtained from healthy donors, and PBMC were isolated by Histopaque 1077 (Sigma, USA) density centrifugation at 400×g for 30 minutes. 5×10^4 cells/well were cultured for 3 days in the RPMI medium as described above, in the presence (positive control) or absence (negative control) of stimulators [PHA (2.5 μg/mL) (Sigma, USA), or both PMA (10 ng/mL) (Sigma, USA) and ionomycin (500 ng/mL) (Calbiochem, USA)], and in the presence of the test compounds, at 37° C. in an atmosphere of 5% CO2 and 90% humidity. The cells were pulsed with 1 μCi of ^3H-thymidine (Amersham, USA) per well during the last 18 h of the culture, and were harvested on the 96-well filter (Packard Bioscience, USA) using a multiple cell harvester (Packard, USA). The incorporation of ^3H-thymidine in activated cells were measured using TopCount NXT (Packard, USA).
Inhibition (as percentage) was calculated using the following formula: % inhibition=(1−(^3H)thymidine incorporation expressed in counts per minute (cpm) in sample/(^3H)thymidine incorporation expressed in cpm in positive control)×100
where positive control refers to stimulated samples, not treated with substances.

IL-8 = assay: Inhibition of IL-8 production by stimulated human peripheral blood leukocytes in vitro; conditions: PBL; for inhibition at 10 µM / inhibition at 50 µM: Homo sapiens, Leukocyte, read-out: Percentage of inhibition of IL-8 production
Procedure: as §1, §2, §3, §4

TNF-α = assay: Inhibition of TNF-α production by stimulated human peripheral blood leukocytes in vitro; conditions: PBL; for inhibition at 10 µM / inhibition at 50 µM: Homo sapiens, Leukocyte, read-out: Percentage of inhibition of TNF-α production
Procedure: as §1, §2, §3, §4

[2] = zymosan stimulated, compound 10 μM
[3] = zymosan stimulated, compound 50 μM

Structure (SMILES): CC[C@H]1OC(=O)[C@H](C)[C@@H](O)[C@H](C)[C@@H](O[C@@H]2O[C@H](C)C[C@H](N(C)C)[C@H]2O)[C@](C)(O)C[C@@H](C)CN(C(=O)Nc2cccc(C(F)(F)F)c2)[C@H](C)[C@@H](O)[C@]1(C)O [Compound 13]
- inhibition at 10 µM (IL-1α; LPS stimulated, compound 10 μM): 0%
- inhibition at 50 µM (IL-1α; LPS stimulated, compound 50 μM): 52%
- inhibition at 10 µM (IL-1α; PMA stimulated, compound 10 μM): 0%
- inhibition at 50 µM (IL-1α; PMA stimulated, compound 50 μM): 32%
- inhibition at 10 µM (IL-1α; [2]): 34%
- inhibition at 50 µM (IL-1α; [3]): 89%
- inhibition at 10 µM (IL-6; LPS stimulated, compound 10 μM): 0%
- inhibition at 50 µM (IL-6; LPS stimulated, compound 50 μM): 0%
- inhibition at 10 µM (IL-6; PMA stimulated, compound 10 μM): 84%
- inhibition at 50 µM (IL-6; PMA stimulated, compound 50 μM): 100%
- inhibition at 10 µM (IL-6; [2]): 52%
- inhibition at 50 µM (IL-6; [3]): 94%
- inhibition at 10 µM ([1]; PHA stimulated): 11%
- inhibition at 50 µM ([1]; PHA stimulated): 42%
- inhibition at 10 µM ([1]; PMA + ionomycin stimulated): 21%
- inhibition at 50 µM ([1]; PMA + ionomycin stimulated): 43%
- inhibition at 10 µM (IL-8; LPS stimulated, compound 10 μM): 0%
- inhibition at 50 µM (IL-8; LPS stimulated, compound 50 μM): 0%
- inhibition at 10 µM (IL-8; PMA stimulated, compound 10 μM): 0%
- inhibition at 50 µM (IL-8; PMA stimulated, compound 50 μM): 25%
- inhibition at 10 µM (IL-8; [2]): 62%
- inhibition at 50 µM (IL-8; [3]): 0%
- inhibition at 10 µM (TNF-α; LPS stimulated, compound 10 μM): 0%
- inhibition at 50 µM (TNF-α; LPS stimulated, compound 50 μM): 0%
- inhibition at 10 µM (TNF-α; PMA stimulated, compound 10 μM): 0%
- inhibition at 50 µM (TNF-α; PMA stimulated, compound 50 μM): 0%
- inhibition at 10 µM (TNF-α; [2]): 0%
- inhibition at 50 µM (TNF-α; [3]): 52%

Structure (SMILES): CC[C@H]1OC(=O)[C@H](C)[C@@H](O[C@H]2C[C@@](C)(OC)[C@@H](O)[C@H](C)O2)[C@H](C)[C@@H](O[C@@H]2O[C@H](C)C[C@H](N(C)C)[C@H]2O)[C@](C)(O)C[C@@H](C)CN(C(=O)Nc2ccc(Cl)c(C(F)(F)F)c2)[C@H](C)[C@@H](O)[C@]1(C)O [Compound 10]
- Percentage of inhibition of IL-1α production (IL-1α; LPS stimulated, compound 10 μM): 0%
- Percentage of inhibition of IL-1α production (IL-1α; LPS stimulated, compound 50 μM): 100%
- Percentage of inhibition of IL-1α production (IL-1α; PMA stimulated, compound 10 μM): 0%
- Percentage of inhibition of IL-1α production (IL-1α; PMA stimulated, compound 50 μM): 100%
- Percentage of inhibition of IL-1α production (IL-1α; [2]): 0%
- Percentage of inhibition of IL-1α production (IL-1α; [3]): 96%
- Percentage of inhibition of IL-6 production (IL-6; LPS stimulated, compound 10 μM): 63%
- Percentage of inhibition of IL-6 production (IL-6; LPS stimulated, compound 50 μM): 100%
- Percentage of inhibition of IL-6 production (IL-6; PMA stimulated, compound 10 μM): 40%
- Percentage of inhibition of IL-6 production (IL-6; PMA stimulated, compound 50 μM): 100%
- Percentage of inhibition of IL-6 production (IL-6; [2]): 76%
- Percentage of inhibition of IL-6 production (IL-6; [3]): 100%
- Percentage of inhibition of IL-8 production (IL-8; LPS stimulated, compound 10 μM): 55%
- Percentage of inhibition of IL-8 production (IL-8; LPS stimulated, compound 50 μM): 93%
- Percentage of inhibition of IL-8 production (IL-8; PMA stimulated, compound 10 μM): 75%
- Percentage of inhibition of IL-8 production (IL-8; PMA stimulated, compound 50 μM): 100%
- Percentage of inhibition of IL-8 production (IL-8; [2]): 82%
- Percentage of inhibition of IL-8 production (IL-8; [3]): 97%
- Percentage of inhibition of TNF-α production (TNF-α; LPS stimulated, compound 10 μM): 32%
- Percentage of inhibition of TNF-α production (TNF-α; LPS stimulated, compound 50 μM): 99%
- Percentage of inhibition of TNF-α production (TNF-α; PMA stimulated, compound 10 μM): 0%
- Percentage of inhibition of TNF-α production (TNF-α; PMA stimulated, compound 50 μM): 100%
- Percentage of inhibition of TNF-α production (TNF-α; [2]): 69%
- Percentage of inhibition of TNF-α production (TNF-α; [3]): 99%

Structure (SMILES): CC[C@H]1OC(=O)[C@H](C)C2O[C@@](C)(C[C@@H](C)CN(C(=O)NCc3ccccc3)[C@H](C)[C@@H](O)[C@]1(C)O)[C@H](O[C@@H]1O[C@H](C)C[C@H](N(C)C)[C@H]1O)[C@H]2C [Compound 11]
- Percentage of inhibition of IL-1α production (IL-1α; LPS stimulated, compound 10 μM): 48%
- Percentage of inhibition of IL-1α production (IL-1α; LPS stimulated, compound 50 μM): 38%
- Percentage of inhibition of IL-1α production (IL-1α; [2]): 85%
- Percentage of inhibition of IL-1α production (IL-1α; [3]): 77%
- Percentage of inhibition of IL-6 production (IL-6; LPS stimulated, compound 10 μM): 0%
- Percentage of inhibition of IL-6 production (IL-6; LPS stimulated, compound 50 μM): 66%
- Percentage of inhibition of IL-6 production (IL-6; [2]): 72%
- Percentage of inhibition of IL-6 production (IL-6; [3]): 100%
- Percentage of inhibition of IL-8 production (IL-8; LPS stimulated, compound 10 μM): 0%
- Percentage of inhibition of IL-8 production (IL-8; LPS stimulated, compound 50 μM): 52%
- Percentage of inhibition of IL-8 production (IL-8; [2]): 23%
- Percentage of inhibition of IL-8 production (IL-8; [3]): 75%
- Percentage of inhibition of TNF-α production (TNF-α; LPS stimulated, compound 10 μM): 0%
- Percentage of inhibition of TNF-α production (TNF-α; LPS stimulated, compound 50 μM): 51%
- Percentage of inhibition of TNF-α production (TNF-α; [2]): 13%
- Percentage of inhibition of TNF-α production (TNF-α; [3]): 88%

Structure (SMILES): CC[C@H]1OC(=O)[C@H](C)[C@@H](O[C@H]2C[C@@](C)(OC)[C@@H](O)[C@H](C)O2)[C@H](C)[C@@H](O[C@@H]2O[C@H](C)C[C@H](N(C)C)[C@H]2O)[C@](C)(O)C[C@@H](C)CN(C(=S)Nc2ccc(Br)cc2)[C@H](C)[C@@H](O)[C@]1(C)O [Compound 7]
- Percentage of inhibition of IL-1α production (IL-1α; LPS stimulated, compound 10 μM): 71%
- Percentage of inhibition of IL-1α production (IL-1α; LPS stimulated, compound 50 μM): 89%
- Percentage of inhibition of IL-1α production (IL-1α; PMA stimulated, compound 10 μM): 0%
- Percentage of inhibition of IL-1α production (IL-1α; PMA stimulated, compound 50 μM): 79%
- Percentage of inhibition of IL-1α production (IL-1α; [2]): 96%
- Percentage of inhibition of IL-1α production (IL-1α; [3]): 83%
- Percentage of inhibition of IL-6 production (IL-6; LPS stimulated, compound 10 μM): 54%
- Percentage of inhibition of IL-6 production (IL-6; LPS stimulated, compound 50 μM): 100%
- Percentage of inhibition of IL-6 production (IL-6; PMA stimulated, compound 10 μM): 65%
- Percentage of inhibition of IL-6 production (IL-6; PMA stimulated, compound 50 μM): 90%
- Percentage of inhibition of IL-6 production (IL-6; [2]): 73%
- Percentage of inhibition of IL-6 production (IL-6; [3]): 100%
- Percentage of inhibition of IL-8 production (IL-8; LPS stimulated, compound 10 μM): 39%
- Percentage of inhibition of IL-8 production (IL-8; LPS stimulated, compound 50 μM): 100%
- Percentage of inhibition of IL-8 production (IL-8; PMA stimulated, compound 10 μM): 40%
- Percentage of inhibition of IL-8 production (IL-8; PMA stimulated, compound 50 μM): 100%
- Percentage of inhibition of IL-8 production (IL-8; [2]): 61%
- Percentage of inhibition of IL-8 production (IL-8; [3]): 99%
- Percentage of inhibition of TNF-α production (TNF-α; LPS stimulated, compound 10 μM): 0%
- Percentage of inhibition of TNF-α production (TNF-α; LPS stimulated, compound 50 μM): 100%
- Percentage of inhibition of TNF-α production (TNF-α; PMA stimulated, compound 10 μM): 95%
- Percentage of inhibition of TNF-α production (TNF-α; PMA stimulated, compound 50 μM): 100%
- Percentage of inhibition of TNF-α production (TNF-α; [2]): 69%
- Percentage of inhibition of TNF-α production (TNF-α; [3]): 100%
